Experimental data reported in PMC12261228 (ACS Pharmacology & Translational Science, 2025).
“Also recorded” adds a separate entry of the source. Like-named read-outs stand apart in the source and are kept apart here.

Key:
K562-TAX = experiment: MTS cytotoxicity assay, 72 h; assay type: cell-based; settings: read-out: IC50 K562-TAX
CCRF-CEM = experiment: MTS cytotoxicity assay, 72 h; assay type: cell-based; settings: Homo sapiens, CCRF-CEM, 72 h
K562 = experiment: MTS cytotoxicity assay, 72 h; assay type: cell-based; settings: Homo sapiens, K562, 72 h, read-out: IC50 K562
MRC-5 = experiment: MTS cytotoxicity assay, 72 h; assay type: cell-based; settings: Homo sapiens, MRC5, 72 h, read-out: IC50 MRC-5
CCRF-CEM lymphoblasts = experiment: FACS analysis of cell cycle, apoptosis, mitosis and polyploidy; settings: for Mitosis: phospho-Histone (Ser10); for Apoptosis: sub-G0/G1 DNA content, % of positive cells
HCT116 = experiment: MTS cytotoxicity assay, 72 h; assay type: cell-based; settings: Homo sapiens, HCT-116, 72 h, read-out: IC50 HCT116
HCT116p53–/– = experiment: MTS cytotoxicity assay, 72 h; assay type: cell-based; settings: read-out: IC50 HCT116p53–/–
HUVEC = experiment: MTS cytotoxicity assay, 72 h; assay type: cell-based; settings: Homo sapiens, 3-day incubation, mean ± SD
CEM-DNR = experiment: MTS cytotoxicity assay, 72 h; assay type: cell-based; settings: Homo sapiens, read-out: IC50 CEM-DNR
BJ = experiment: MTS cytotoxicity assay, 72 h; assay type: cell-based; settings: Homo sapiens, read-out: IC50 BJ
[1] = test system: microtubules in U2OS cells; experiment: Immunofluorescence of microtubule organization; assay type: cell-based, human; settings: 15 h
Protocol: DMSO at appropriate dilution served as control.
Immunofluorescence microscopy on formaldehyde-fixed, Triton X-100 extracted cells (F/Tx) was performed as previously described. Extraction and fixation steps were carried out in a microtubule stabilizing buffer consisting of 0.1 M KMes, 2 mM EGTA, 2 mM MgCl2, 4% polyethylene glycol 6000, pH 6.9. Cells were fixed for 30 min in 3% formaldehyde before extraction for 4 min with 0.5% Triton X-100 at 37 °C. Mouse monoclonal antibody TU-01 (IgG1) directed to α-tubulin , in the form of hybridoma spent culture medium was diluted 1:10. The DyLight 549-conjugated antimouse antibody (Jackson Immunoresearch Laboratories, West Grove, PA, USA) was diluted 1:500. Samples were mounted in MOWIOL 4–88 (Calbiochem, San Diego, CA, USA) supplemented with 4,6-diamidino-2-phenylindole (DAPI; Sigma-Aldrich, St. Louis, MO, USA) and examined with an Olympus AX-70 Provis microscope (Olympus, Hamburg, Germany) equipped with a 60×/1.0 water objective.

U2OS = experiment: MTS cytotoxicity assay, 72 h; assay type: cell-based, human
A549 = experiment: MTS cytotoxicity assay, 72 h; assay type: cell-based; settings: Homo sapiens, Fig. S22
Protocol: Cell suspensions were prepared and diluted according to the particular cell type and the expected target cell density (500 – 4,000 cells/well). The cells (30 μL/well) were seeded to 384-well clear Corning plates by MultiDrop Combi (Thermo Fisher Scientific, USA). After 24 h the cells were treated with tested compounds as well as with vehicle (DMSO) and high controls (2.67 μM of Actinomycin D and 100 μM Mitomycin C) using contact-free acoustic liquid handler ECHO 555 (Labcyte, USA). Compounds were analyzed at a concentration range from 0.012 μM to 50 μM. Treated cells were incubated at 37 °C in a 5% CO2 atmosphere of a humidified incubator for 72 h. At the end of the incubation period, aliquots of the MTS (Promega) solution prepared according to manufacturer's instructions were added to cells (https://worldwide.promega.com/resources/protocols/technical-bulletins/0/celltiter-96-aqueous-nonradioactive-cell-proliferation-assay-protocol/). After 1 – 4 h of the incubation period, the optical density (OD) at 490 nm was measured on a multimode plate reader EnVision (PerkinElmer, USA). The experiments were performed in technical duplicates and at least three biological replicates. […] The assay quality was monitored by determining the Z′-factor for each 384-well plate. The resistance index (RI), representing the reduction in compound activity on resistant cell lines, was calculated as RI = (IC50 of resistant cell lines, CEM-DNR, K562-TAX)/(IC50 of nonresistant counterparts, CCRF-CEM, K562). Similarly, the selectivity index (SI), indicating preferential cytotoxicity toward tumor cell lines, was calculated as SI = (mean IC50 of nontumor cell lines, BJ and MRC5)/(mean IC50 of cancer cell lines without resistant variants, CCRF-CEM, K562, HCT116, HCT116p53–/–, U2OS).

[2] = read-out: IC50 CCRF-CEM, MTS assay, 3-day incubation, mean ± SD of 3 experiments
[3] = paclitaxel-resistant, MTS assay, 3-day incubation, mean ± SD
[4] = MTS assay, 3-day incubation, mean ± SD of 3 experiments, read-out: IC50 CCRF-CEM
[5] = MTS assay, 3-day incubation, mean ± SD
[6] = normal fibroblasts, MTS assay, 3-day incubation, mean ± SD
[7] = Homo sapiens, U2OS, 72 h, MTS assay, 3-day incubation, mean ± SD, read-out: IC50 U2OS
[8] = daunorubicin-resistant, MTS assay, 3-day incubation, mean ± SD

Structure (SMILES)	IC50 (CCRF-CEM; [2])	IC50 (K562)	IC50 (MRC-5)	G0/G1 (CCRF-CEM lymphoblasts; 1×IC50, 24 h)	G2/M (CCRF-CEM lymphoblasts; 1×IC50, 24 h)	Polyploid cells (CCRF-CEM lymphoblasts; 1×IC50, 24 h)	S (CCRF-CEM lymphoblasts; 1×IC50, 24 h)	Mitosis (CCRF-CEM lymphoblasts; 1×IC50, 24 h)	Apoptosis (CCRF-CEM lymphoblasts; 1×IC50, 24 h)	G0/G1 (CCRF-CEM lymphoblasts; 5×IC50, 24 h)	Polyploid cells (CCRF-CEM lymphoblasts; 5×IC50, 24 h)	S (CCRF-CEM lymphoblasts; 5×IC50, 24 h)	Mitosis (CCRF-CEM lymphoblasts; 5×IC50, 24 h)	Apoptosis (CCRF-CEM lymphoblasts; 5×IC50, 24 h)	IC50 (HCT116)	IC50 (HCT116p53–/–)	IC50 (HUVEC)	IC50 (BJ)	effect on microtubules (in words) ([1]; 10 μM)	IC50 (K562-TAX; [3])	further results
COc1cc2c(c(OC)c1OC)-c1ccc(OC)c(=O)cc1[C@@H](NC(=O)CCC1=C3C(C)=CC(C)=[N+]3[B-](F)(F)n3c(C)cc(C)c31)CC2 [CB1]	0.4 ± 0.018 µM	0.45 ± 0.054 µM	5.69 ± 0.639 µM	36.69%	38.6%	17.25%	24.71%	7.96%	5.32%	50.26%	19.14%	1.72%	17.85%	11.73%	0.5 ± 0.032 µM	0.58 ± 0.063 µM	0.67 ± 0.033 µM	8.35 ± 0.419 µM	completely disrupted microtubules		IC50 (K562-TAX): 1.47 ± 0.361 µM; G2/M (CCRF-CEM lymphoblasts; 5×IC50, 24 h): 48.02%; RI (resistance index) (panel of cell lines): 4.16; SI (selectivity index) (panel of cell lines): 13.66; IC50 (CEM-DNR): 2.07 ± 0.212 µM
COc1cc2c(c(OC)c1OC)-c1ccc(OC)c(=O)cc1[C@@H](n1cc(CCCC3=C4C(C)=CC(C)=[N+]4[B-](F)(F)n4c(C)cc(C)c43)nn1)CC2 [CB4]	0.02 ± 0.0009 µM	0.088 ± 0.013 µM	> 50 µM	41.19%	27.75%	19.29%	31.06%	2.76%	3.04%	5.49%	23.72%	1.83%	64.43%	12.24%	0.1 ± 0.004 µM	0.12 ± 0.012 µM	< 0.0122 µM	> 50 µM	microtubule remnants were detectable; also recorded: perinuclear bundles were observed; also recorded: disruption of microtubule organization and generation of perinuclear microtubule bundles		cytotoxic activity across the cell line panel (in words) (panel of cell lines): changed only slightly
COc1cc2c(c(OC)c1OC)-c1ccc(OC)c(=O)cc1[C@@H](n1cc(CCCC3=C4C(C)=CC(C)=[N+]4[B-](F)(F)n4c(C)cc(C)c43)[n+](C)n1)CC2 [CB7]	0.84 ± 0.058 µM	0.77 ± 0.0224 µM	> 50 µM	26.66%	45.89%	21.60%	27.45%	19.77%	13.02%	6.62%	23.77%	4.54%	68.32%	14.67%	1.51 ± 0.33 µM	1.43 ± 0.162 µM	1.4 ± 0.104 µM	> 50 µM	microtubule remnants were detectable		IC50 (K562-TAX): 0.62 ± 0.084 µM; IC50 (U2OS; Homo sapiens, U2OS, 72 h, read-out: IC50 U2OS, MTS assay, 3-day incubation, mean ± SD): < 2 µM; IC50 (U2OS; read-out: IC50 U2OS, MTS assay, 3-day incubation, mean ± SD): 1.96 ± 0.096 µM; G2/M (CCRF-CEM lymphoblasts; 5×IC50, 24 h): 88.84%; RI (resistance index) (panel of cell lines): 1.22; SI (selectivity index) (panel of cell lines): >38.40; IC50 (CEM-DNR): 1.34 ± 0.229 µM
COc1cc(C2=C3C(C)=CC(C)=[N+]3[B-](F)(F)n3c(C)cc(C)c32)ccc1O [B7]																				> 50 µM	IC50 (CCRF-CEM; [4]): > 50 µM; IC50 (K562; [5]): > 50 µM; IC50 (MRC-5; [6]): > 50 µM; IC50 (U2OS; [7]): > 50 µM; IC50 (HCT116; [5]): > 50 µM; IC50 (HCT116p53–/–; [5]): > 50 µM; IC50 (CEM-DNR; [8]): 39.9 µM; IC50 (BJ; [6]): > 50 µM; IC50 (A549): > 50 µM
C#CCOc1ccc(C2=C3C(C)=CC(C)=[N+]3[B-](F)(F)n3c(C)cc(C)c32)cc1OC [B8]																				> 50 µM	IC50 (CCRF-CEM; [4]): > 50 µM; IC50 (K562; [5]): > 50 µM; IC50 (MRC-5; [6]): > 50 µM; IC50 (U2OS; [7]): > 50 µM; IC50 (HCT116; [5]): > 50 µM; IC50 (HCT116p53–/–; [5]): > 50 µM; IC50 (CEM-DNR; [8]): > 50 µM; IC50 (BJ; [6]): > 50 µM; IC50 (A549): > 50 µM
CC1=CC(C)=[N+]2C1=C(CCCCN)c1c(C)cc(C)n1[B-]2(F)F [B4]																				> 50 µM	IC50 (CCRF-CEM; [4]): 32.9 µM; IC50 (K562; [5]): > 50 µM; IC50 (MRC-5; [6]): > 50 µM; IC50 (U2OS; [7]): > 50 µM; IC50 (HCT116; [5]): > 50 µM; IC50 (HCT116p53–/–; [5]): > 50 µM; IC50 (CEM-DNR; [8]): > 50 µM; IC50 (BJ; [6]): > 50 µM; IC50 (A549): > 50 µM
COc1cc2c(c(OC)c1OC)-c1ccc(OC)c(=O)cc1[C@@H](NC(C)=O)CC2 [Col, colchicine, reference compound]				2.61%	80.55%	14.45%	16.84%	58.35%	13.67%	4.73%	14.73%	24.71%	64.48%	11.47%							G2/M (CCRF-CEM lymphoblasts; 5×IC50, 24 h): 70.57%; polyploidization in CCRF-CEM cells (in words) (CCRF-CEM lymphoblasts; both 1 × IC50 and 5 × IC50): induced polyploidization; effect on microtubules (in words) ([1]; 0.1 μM): effectively depolymerized microtubules
C#CCCCCCCCCC1=C2C(C)=CC(C)=[N+]2[B-](F)(F)n2c(C)cc(C)c21 [B10]																				> 50 µM	IC50 (CCRF-CEM; [4]): > 50 µM; IC50 (K562; [5]): > 50 µM; IC50 (MRC-5; [6]): > 50 µM; IC50 (U2OS; [7]): > 50 µM; IC50 (HCT116; [5]): > 50 µM; IC50 (HCT116p53–/–; [5]): > 50 µM; IC50 (CEM-DNR; [8]): > 50 µM; IC50 (BJ; [6]): > 50 µM; IC50 (A549): > 50 µM
COc1cc(C2=C3C(C)=CC(C)=[N+]3[B-](F)(F)n3c(C)cc(C)c32)ccc1OCc1cn([C@H]2CCc3cc(OC)c(OC)c(OC)c3-c3ccc(OC)c(=O)cc32)nn1 [CB6]	0.14 ± 0.01 µM	0.026 ± 0.001 µM	> 50 µM	12.32%	55.58%	23.13%	32.1%	29.41%	7.55%	3.72%	24.76%	1.88%	61.11%	14.32%	0.43 ± 0.0325 µM	0.38 ± 0.057 µM	< 0.0122 µM	> 50 µM	microtubule remnants were detectable		cytotoxic activity across the cell line panel (in words) (panel of cell lines): changed only slightly
